The record followed here is patent US20250345446A1 (Draupnir Bio ApS, priority 2022, published 2025).

Assay [1] concerns HEK293/sortilin cells. As to the kind of experiment: Remaining TNFalpha in conditioned media (ELISA). The class given is cell-based. Particulars: after 72 h, 20 nM TNFalpha; added TNFalpha (100%) subtracted remaining TNFalpha (%). The protocol:
In different experiments, HEK293/sortilin cells were incubated with compound gradient series and 20 nM TNFalpha for up to 72 h. Following incubation, remaining TNFalpha in conditioned media was evaluated using human TNF-alpha Quantikine ELISA Kit (R&D systems, DTA00D).
On the technique in general: ELISA stands for enzyme-linked immunosorbent assay.

For assay [2], the system named is HEK293 cells expressing full length sortilin receptor. As to the kind of experiment: Cellular uptake of TNFalpha / Cy5-TNFalpha mediated by bifunctional compounds. The class given is cell-based. As to conditions: 24 h, 0.5 nM to 20 μM, leupeptin 80 μM vs without. The protocol: Cellular uptake of TNFalpha was investigated in HEK293 cells expressing full length sortilin receptor using a methodology analogous to example 3 with TNFalpha target.
Efficacy of individual bifunctional compounds was assessed as AUC of TNFalpha internalisation (Table 9)

The target in assay [3] is T1, soluble ectodomain of sortilin-6his (Homo sapiens, UniProt Q99523, V650M).
T1 construct: the soluble ectodomain of sortilin-6his is measured by microscale thermophoresis (MST)
T1 sequence (Q99523 with tags, fused parts or gaps V650M): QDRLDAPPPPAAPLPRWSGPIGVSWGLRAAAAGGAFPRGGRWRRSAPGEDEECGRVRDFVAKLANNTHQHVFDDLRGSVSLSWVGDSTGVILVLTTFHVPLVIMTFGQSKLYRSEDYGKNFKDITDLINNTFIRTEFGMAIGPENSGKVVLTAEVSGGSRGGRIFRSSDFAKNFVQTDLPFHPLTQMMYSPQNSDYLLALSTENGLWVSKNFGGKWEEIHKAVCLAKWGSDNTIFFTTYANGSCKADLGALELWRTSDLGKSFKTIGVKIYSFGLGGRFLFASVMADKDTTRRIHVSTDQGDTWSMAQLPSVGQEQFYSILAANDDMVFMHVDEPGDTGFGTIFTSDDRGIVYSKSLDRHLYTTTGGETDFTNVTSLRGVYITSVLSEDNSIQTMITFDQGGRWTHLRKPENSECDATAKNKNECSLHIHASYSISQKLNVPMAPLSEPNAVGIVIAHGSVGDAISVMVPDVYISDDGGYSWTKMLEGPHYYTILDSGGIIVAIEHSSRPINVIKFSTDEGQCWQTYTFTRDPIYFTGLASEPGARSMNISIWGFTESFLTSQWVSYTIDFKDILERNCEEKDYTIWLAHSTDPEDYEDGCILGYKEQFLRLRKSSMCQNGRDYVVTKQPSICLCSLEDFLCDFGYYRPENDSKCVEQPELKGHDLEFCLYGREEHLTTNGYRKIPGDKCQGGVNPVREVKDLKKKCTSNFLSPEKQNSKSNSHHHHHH
As to the kind of experiment: MST binding to soluble ectodomain of sortilin-6his. Particulars: MST, read-out: KD score, binding to sortilin (Kd).

Assay [4] has as its system HEK293/sortilin cells. As to the kind of experiment: Pulse-chase cellular degradation of TNFalpha (Western blot of lysates). Particulars: 24 h pre-incubation with compound 3 μM and TNFalpha 100 nM, chase 0 h to 24 h. The class given is cell-based. The procedure:
To monitor cellular degradation of target over time, a pulse-chase experiment was performed: HEK293/sortilin cells were pre-incubated with bifunctional compound (3 μM) and TNFalpha (100 nM) for 24 h before replacing culture supernatant with fresh media without target and bifunctional compound. Following replacement of media, cells were incubated for up to 24 h and TNFa levels was assessed at different timepoints by Western blotting of cell lysates.
On the technique in general: A western blot detects proteins with antibodies after separation by electrophoresis.

Assay [5] addresses Sortilin-6His (Homo sapiens (Human)) (UniProt Q99523). As to the kind of experiment: MST on labelled sortilin-6his ectodomain; KD score: +++ <25 nM, ++ 25-250 nM, + 250-2500 nM, 0 >2500 nM.
For assay [6], the system named is HEK293/sortilin cells. As to the kind of experiment: Lysosomal degradation of internalized AlexaFluor488-anti-DNP antibody (blotted lysates). The class given is cell-based. As to conditions: 6:30 h, AlexaFluor488-anti-DNP antibody 100 nM, compound 30 nM. The protocol: Intracellular levels of AlexaFluor488-anti-DNP antibody (Thermo Fisher) following internalization was investigated in HEK293/sortilin cells. Cells (250k) were seeded in 4-well plates in 250 μL culture medium as described in Example 3 and incubated overnight.
Culture medium was replaced with assay medium (as described in Example 3) with AlexaFluor488-anti-DNP antibody (Thermo Fisher) (100 nM) and BF005 (30 nM). Selected samples were added sortilin inhibitor, AF38469 (10 μM) or a lysosomal protease inhibitor, Leupeptin (80 μM) (Sigma Aldrich). Cells were incubated 3-6: 30 h in cell incubator before they were washed with dPBS (Bionordika) and medium was either replaced with assay medium without BF005 and AlexaFluor488-anti-DNP antibody and incubated in cell incubator for up to 24 h or cells were lysed. Following incubation, cells were lysed in lysis buffer, and lysates were subjected to SDS-PAGE before transfer of proteins to a nitrocellulose membrane as described in Example 4. AlexaFluor488 FI signal was detected using an iBright 1500 (Thermo Fisher). Following evaluation of FI signal, membrane was blocked and incubated with primary anti-β-actin antibody (1:3500) (Sigma Aldrich) and secondary anti-mouse-HRP antibody (1:3500) (Abcam) and developed and analyzed using ECL reagents (Cytiva) and iBright 1500 (Thermo Fisher), as described in example 4. […]

For assay [7], the system named is HEK293/sortilin cells. As to the kind of experiment: Depletion of NA650 from cell culture supernatant. Particulars: after 48 and 72 hours, NA650 100 nM, 20 nM-5 μM. The class given is cell-based. The procedure: HEK293/sortilin cells were cultured in culture media containing DMEM (Lonza) further supplemented with 10% fetal bovine serum (Sigma), 1% GlutaMax Supplement (Gibco), penicillin-streptomycin (Thermo Fischer) and selection antibiotics 100 μg/mL Zeocin (Invitrogen). 35k cells/well were seeded in poly-L-lysine coated 96-well plates (Perkin Elmer) and allowed to incubate for 16-24 h in cell incubator (37° C., humidified, 5% CO2). Culture media were discarded, and the cells were washed with assay medium containing FluoroBright DMEM (Gibco) supplemented with 10% fetal bovine serum (Sigma) and 1% GlutaMax Supplement (Gibco). The media were discarded and replaced with assay media or assay medium containing 100 nM NA650 (Invitrogen). For wells evaluating the bifunctional compounds, the assay medium also contained concentrations ranging from 20 nM to 5 μM. After an incubation period of up to 72 h in the cell incubator the media were harvested and the presence of NA650 were evaluated by fluorescence intensity (FI) measurements of DyLight650 using a fluorescence plate reader (BMG Labtech Clariostar).
HEK293/sortilin cells (35k cells/96-well) were seeded in culture media (as described in Example 3) and incubated for 24 h in cell incubator. Culture media were discarded, and the cells were washed with assay medium containing FluoroBright DMEM (Gibco) and supplements as described in Example 3, before incubation in assay medium containing 100 nM NA650 and small molecule bifunctional compounds (20 nM to 5 μM). After an incubation period of up to 72 h, the media were harvested and the presence of NA650 were evaluated by FI measurements of DyLight650 using a fluorescence plate reader (BMG Labtech Clariostar).

The test system of assay [8] is untransfected HEK239 cells. As to the kind of experiment: Cellular uptake of target in untransfected HEK293 cells (Example 22). The format is cell-based. Particulars: HEK293 cells without sortilin, 3 h, 2 nM to 2 μM, corresponding targets.
From the text: Cellular uptake of target was investigated in untransfected HEK239 cells and HEK293 cells expressing sortilin receptor in a methodology analogous to example 3.
Assay [9] deals with streptavidin, bifunctional compound and sortilin-6his (UniProt P22629+Q99523, V650M). As to the kind of experiment: TR-FRET ternary complex formation streptavidin / bifunctional peptide / sortilin-6his. Particulars: Table 2; […] incubation, HTRF ratio 665/620 nm. In general terms: TR-FRET usually uses a lanthanide donor and a delayed reading to cut background.
Method: In these experiments, the compounds of interest were titrated over 24-point in a 384-well TTP LVDS plate (SPT Labtech) to a final buffer composition of 50 mM Bis-Tris Propane pH 8, 50 mM NaCl, 0.05% Tween20, with or without 10% DMSO using a Mosquito LV pipetting robot (SPT Labtech).
The reaction was allowed to incubate for 2.5 hours at room temperature, at which point the HTRF signal ratio at 665/620 nm was determined using a plate reader (ClarioStar, BMG Labtech). All reactions were run in triplicates and data was represented as HTRF ratio as a function of bifunctional compound concentration.
Another assay deals with HEK293/sortilin. As to the kind of experiment: Cellular uptake of target in HEK293 cells expressing sortilin receptor (Example 22). The class given is cell-based. Particulars: 3 h, 2 nM to 2 μM, corresponding targets.
Assay [10] concerns the target T2, Sortilin-6His (Homo sapiens (Human), UniProt Q99523 78-755).
T2 construct: In MST it was labelled non-covalently with RED-tris-NTA; also called soluble ectodomain of sortilin-6his; fluorescent sortilin-6his
As to the kind of experiment: MST, fluorescent sortilin-6his (100 nM), peptide titrated.

For assay [11], the target named is T2, Sortilin-6His. As to the kind of experiment: MST on labelled sortilin-6his ectodomain; KD score: ++ <100 nM, + 100-2000 nM.
The target of assay [12] is T2, Sortilin-6His. As to the kind of experiment: TR-FRET (HTRF) ternary complex streptavidin-d2 / biotin-peptide / sortilin-6His; AUC score: + <5000, ++ >5000.
The target of assay [13] is T2, Sortilin-6His. As to the kind of experiment: MST on labelled sortilin-6his ectodomain.
Where [14] appears, read: Table 4, small molecule bifunctional compounds.

Like-named read-outs stand apart in the source and are kept apart here. Residues, ends and D or L forms follow the SMILES beside them. *: point of attachment. Biotin = O=C1N[C@H]2[C@H](CS[C@H]2CCCCC(=O)*)N1 Where only a bound is given, the exact number is not on record here.

T2 sequence (Q99523 78-755 V650M limits assumed): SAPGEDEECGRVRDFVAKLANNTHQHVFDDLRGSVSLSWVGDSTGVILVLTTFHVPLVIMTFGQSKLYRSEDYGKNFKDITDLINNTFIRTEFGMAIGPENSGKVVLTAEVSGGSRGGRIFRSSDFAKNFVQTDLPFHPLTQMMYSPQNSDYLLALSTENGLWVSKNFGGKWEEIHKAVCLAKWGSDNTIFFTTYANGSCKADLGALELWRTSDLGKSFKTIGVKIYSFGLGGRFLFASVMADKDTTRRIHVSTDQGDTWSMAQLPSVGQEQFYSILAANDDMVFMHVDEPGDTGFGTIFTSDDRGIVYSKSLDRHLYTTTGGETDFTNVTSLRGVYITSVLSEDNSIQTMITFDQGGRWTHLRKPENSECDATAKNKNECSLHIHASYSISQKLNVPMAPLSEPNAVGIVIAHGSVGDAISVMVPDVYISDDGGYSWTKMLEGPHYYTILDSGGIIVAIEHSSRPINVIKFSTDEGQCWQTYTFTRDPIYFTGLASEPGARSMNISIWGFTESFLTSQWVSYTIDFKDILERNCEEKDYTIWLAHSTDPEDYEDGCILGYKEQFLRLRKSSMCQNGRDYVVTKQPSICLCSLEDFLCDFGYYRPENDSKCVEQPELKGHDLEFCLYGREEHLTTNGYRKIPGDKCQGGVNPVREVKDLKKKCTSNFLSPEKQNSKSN
Chain of Sortilin-6His (Homo sapiens (Human)) (Q99523 78-755 V650M limits assumed): as above

For the molecule `C[C@@H]1CN(c2ncc(-c3ccc4c(n3)N(Cc3cccnc3C#N)C(C)(C)C4=O)cn2)CCN1C(=O)CNC(=O)CCCCCCCCCCCNC(=O)c1cccc(Oc2ccc(C(=O)N[C@@H](CCC(C)(C)C)C(=O)O)cn2)c1` [BF042, (2S)-2-[[6-[3-[[12-[[2-[(2R)-4-[5-[1-[(2-cyano-3-pyridyl)methyl]-2,2-dimethyl-3-oxo-pyrrolo[2,3-b]pyridin-6-yl]pyrimidin-2-yl]-2-methyl-piperazin-1-yl]-2-oxo-ethyl]amino]-12-oxo-dodecyl]carbamoyl]phenoxy]pyridine-3-carbonyl]amino]-5,5-dimethyl-hexanoic acid], the “Maximum clearance rates of TNFalpha from conditioned media” value with HEK293/sortilin cells [1] was found to be 74.4%. Also, in [2], the “cell associated FI signal with addition of leupeptin” value is given as “marked increases cell associated signal”. For the same molecule, the Kd (in general, the equilibrium constant for the complex coming apart) in [3] (setting [14]) lay within 1 to 10 nM. Moreover, in the assay on HEK293/sortilin cells [4], the “TNFalpha bands in cell lysate over time” value was “barely detectable after 7 h”.
For the molecule “H-LQLL-OH (as printed in Table 3 for SEQ ID NO.: 30) (peptide)”, the KD (usually the constant that tells how readily two partners part at equilibrium) in assay [5] was 25 to 250 nM.
Take `CNC(=O)c1cccc2c(Oc3ccc(C(=O)N[C@@H](CCC(C)(C)C)C(=O)O)cn3)cccc12` [SB001, (2S)-5,5-dimethyl-2-[[6-[[5-(methylcarbamoyl)-1-naphthyl]oxy]pyridine-3-carbonyl]amino]hexanoic acid]: the “Ig heavy chain (HC) band in lysates” value in the assay on HEK293/sortilin cells [6] is “absent”.
In the case of `C[C@@H]1CN(c2ncc(-c3ccc4c(n3)N(Cc3cccnc3C#N)C(C)(C)C4=O)cn2)CCN1C(=O)CNC(=O)CCCCCCCCCNC(=O)c1cccc(Oc2ccc(C(=O)N[C@@H](CCC(C)(C)C)C(=O)O)cn2)c1` [BF043, (2S)-2-[[6-[3-[[10-[[2-[(2R)-4-[5-[1-[(2-cyano-3-pyridyl)methyl]-2,2-dimethyl-3-oxo-pyrrolo[2,3-b]pyridin-6-yl]pyrimidin-2-yl]-2-methyl-piperazin-1-yl]-2-oxo-ethyl]amino]-10-oxo-decyl]carbamoyl]phenoxy]pyridine-3-carbonyl]amino]-5,5-dimethyl-hexanoic acid], the “Maximum clearance rates of TNFalpha from conditioned media” value in the assay on HEK293/sortilin cells [1] was determined as 63.3%. Moreover, in assay [3] (setting [14]), the dissociation constant Kd was below 1 nM.
Take `CC(C)C[C@H](NC(=O)[C@H](CC(C)C)NC(=O)[C@H](CCC(N)=O)NC(=O)[C@H](Cc1ccccc1)NC(=O)CNC(=O)CNC(=O)[C@H](CO)NC(=O)CNC(=O)CNC(=O)CNC(=O)CNC(=O)[C@H](CO)NC(=O)CNC(=O)CNC(=O)CNC(=O)CNC(=O)[C@H](CO)NC(=O)CNC(=O)CNC(=O)CCCC[C@@H]1SC[C@@H]2NC(=O)N[C@@H]21)C(=O)O` [SEQ ID NO.: 155] (Biotin-GGSGGGGSGGGGSGGFQLL-OH): in the assay on HEK293/sortilin cells [7], the “NA650 FI signal in supernatant compared to SEQ ID NO.: 147 (in words)” value was “further reduction of target in cell culture supernatant”. The results for the “cell associated FI response to increasing degrader concentration” value (in [8]; in the assay on HEK293/sortilin) were “No response” and “bell-shaped FI response”, respectively. In addition, in assay [9], the “AUC score, TR-FRET measurements of ternary complex formation” value is “++ (AUC > 5000)”. Besides, the equilibrium dissociation constant (Kd) in [3] (Table 1, biotin-linker-peptide bifunctional compounds) lay within 100 to 2000 nM.

B1: Biotin-GGSGGGGSGGGGSGGRQLL-OH (peptide)
peptide: Biotin-GGSGGGGSGGGGSGGRQLL-OH
SMILES: CC(C)C[C@H](NC(=O)[C@H](CC(C)C)NC(=O)[C@H](CCC(N)=O)NC(=O)[C@H](CCCNC(=N)N)NC(=O)CNC(=O)CNC(=O)[C@H](CO)NC(=O)CNC(=O)CNC(=O)CNC(=O)CNC(=O)[C@H](CO)NC(=O)CNC(=O)CNC(=O)CNC(=O)CNC(=O)[C@H](CO)NC(=O)CNC(=O)CNC(=O)CCCC[C@@H]1SC[C@@H]2NC(=O)N[C@@H]21)C(=O)O
notes: also called degrader
Molecule B1 returned an equilibrium dissociation constant (Kd) with Sortilin-6His [10] of 703 nM. For the same molecule, the KD with Sortilin-6His [11] was in the range of 100 to 2000 nM. The “AUC of TR-FRET (HTRF ratio vs compound concentration) for ternary complex formation” value with Sortilin-6His [12] is above 5000 auc.

B2: Biotin-GGSGGGGSGGGGSGG-OH (peptide)
peptide: Biotin-GGSGGGGSGGGGSGG-OH
SMILES: O=C(O)CNC(=O)CNC(=O)[C@H](CO)NC(=O)CNC(=O)CNC(=O)CNC(=O)CNC(=O)[C@H](CO)NC(=O)CNC(=O)CNC(=O)CNC(=O)CNC(=O)[C@H](CO)NC(=O)CNC(=O)CNC(=O)CCCC[C@@H]1SC[C@@H]2NC(=O)N[C@@H]21
Take B2: the binding result with Sortilin-6His [13] is “no binding”.
